Data from article PMC7261929, “A New Family of Jumonji C Domain-Containing KDM Inhibitors Inspired by Natural Product Purpurogallin” (Frontiers in Chemistry, 2020).

How the values were obtained:
Type in all cases: biochemical
[1] = target: T1, KDM4A (Homo sapiens, UniProt O75164); assay: KDM4A enzymatic screening assay and fluorescence assay at […]
T1 sequence (O75164 2-1064): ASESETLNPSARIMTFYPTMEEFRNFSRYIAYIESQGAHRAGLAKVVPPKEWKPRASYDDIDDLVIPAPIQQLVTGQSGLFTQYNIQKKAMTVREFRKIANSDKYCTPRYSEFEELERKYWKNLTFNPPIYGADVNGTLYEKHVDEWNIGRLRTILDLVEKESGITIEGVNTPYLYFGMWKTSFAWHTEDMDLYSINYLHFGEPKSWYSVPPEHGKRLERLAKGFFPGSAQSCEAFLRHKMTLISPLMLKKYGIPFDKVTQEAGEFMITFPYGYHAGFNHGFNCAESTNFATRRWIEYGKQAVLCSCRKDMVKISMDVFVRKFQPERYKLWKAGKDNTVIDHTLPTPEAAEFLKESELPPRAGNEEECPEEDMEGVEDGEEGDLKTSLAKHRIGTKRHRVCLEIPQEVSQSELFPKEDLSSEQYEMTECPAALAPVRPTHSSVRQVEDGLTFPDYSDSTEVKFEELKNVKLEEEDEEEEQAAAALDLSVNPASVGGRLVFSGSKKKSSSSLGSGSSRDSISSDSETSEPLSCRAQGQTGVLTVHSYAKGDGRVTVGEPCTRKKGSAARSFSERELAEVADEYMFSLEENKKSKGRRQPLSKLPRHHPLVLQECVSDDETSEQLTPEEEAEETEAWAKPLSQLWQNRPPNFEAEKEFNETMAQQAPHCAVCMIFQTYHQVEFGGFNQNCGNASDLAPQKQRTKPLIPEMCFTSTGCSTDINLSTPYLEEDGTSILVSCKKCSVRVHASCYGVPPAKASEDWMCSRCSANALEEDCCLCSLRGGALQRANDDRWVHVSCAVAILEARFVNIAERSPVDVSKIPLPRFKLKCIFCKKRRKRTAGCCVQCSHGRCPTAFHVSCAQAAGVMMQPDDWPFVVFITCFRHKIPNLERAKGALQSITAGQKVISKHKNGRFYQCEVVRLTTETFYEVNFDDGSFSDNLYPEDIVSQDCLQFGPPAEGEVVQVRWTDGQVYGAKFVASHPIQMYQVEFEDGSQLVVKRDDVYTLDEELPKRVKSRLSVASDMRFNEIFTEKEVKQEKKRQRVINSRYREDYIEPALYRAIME

[2] = target: T1, KDM4A; assay: fluorescence demethylase enzymatic assay, single dose […]
[3] = target: T2, KDM4C (Homo sapiens, UniProt Q9H3R0); assay: fluorescence demethylase enzymatic assay, dose curve
T2 construct: KDM4C-GST recombinant enzyme
T2 sequence (Q9H3R0 1-1056): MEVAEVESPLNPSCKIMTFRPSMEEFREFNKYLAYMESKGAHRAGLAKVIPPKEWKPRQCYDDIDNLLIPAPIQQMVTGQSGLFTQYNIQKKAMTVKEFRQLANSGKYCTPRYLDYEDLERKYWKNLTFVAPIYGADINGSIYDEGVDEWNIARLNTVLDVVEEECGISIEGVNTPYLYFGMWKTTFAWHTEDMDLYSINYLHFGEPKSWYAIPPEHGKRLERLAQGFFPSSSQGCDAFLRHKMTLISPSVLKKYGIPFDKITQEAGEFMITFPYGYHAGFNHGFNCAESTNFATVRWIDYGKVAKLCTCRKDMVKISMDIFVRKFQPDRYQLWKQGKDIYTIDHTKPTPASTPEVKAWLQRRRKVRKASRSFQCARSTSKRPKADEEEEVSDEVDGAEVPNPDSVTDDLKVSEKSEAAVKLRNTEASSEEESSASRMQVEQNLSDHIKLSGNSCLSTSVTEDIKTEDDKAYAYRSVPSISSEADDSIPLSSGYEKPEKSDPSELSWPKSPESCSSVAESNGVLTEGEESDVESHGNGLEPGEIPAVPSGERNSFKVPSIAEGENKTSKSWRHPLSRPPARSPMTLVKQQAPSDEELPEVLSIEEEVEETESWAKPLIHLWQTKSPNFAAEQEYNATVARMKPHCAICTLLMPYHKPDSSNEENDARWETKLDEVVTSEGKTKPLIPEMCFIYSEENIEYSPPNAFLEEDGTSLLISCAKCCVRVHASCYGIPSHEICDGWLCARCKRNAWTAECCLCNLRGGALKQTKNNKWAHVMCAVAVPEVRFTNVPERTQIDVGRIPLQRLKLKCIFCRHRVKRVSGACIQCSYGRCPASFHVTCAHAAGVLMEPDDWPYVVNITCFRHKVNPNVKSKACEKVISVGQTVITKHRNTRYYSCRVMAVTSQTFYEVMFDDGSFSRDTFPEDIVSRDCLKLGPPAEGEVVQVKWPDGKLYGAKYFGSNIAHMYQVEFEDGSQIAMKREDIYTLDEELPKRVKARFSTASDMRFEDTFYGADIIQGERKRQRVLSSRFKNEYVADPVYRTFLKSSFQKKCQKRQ

[4] = target: T1, KDM4A; assay: AlphaLISA JMJD2A homogeneous demethylase assay, […] concentrations (fluorescence assay gave IC50 […])
[5] = target: T3, KDM4B (Homo sapiens, UniProt O94953); assay: fluorescence demethylase enzymatic assay, dose curve
T3 construct: KDM4B-GST recombinant enzyme
T3 sequence (O94953 1-1096): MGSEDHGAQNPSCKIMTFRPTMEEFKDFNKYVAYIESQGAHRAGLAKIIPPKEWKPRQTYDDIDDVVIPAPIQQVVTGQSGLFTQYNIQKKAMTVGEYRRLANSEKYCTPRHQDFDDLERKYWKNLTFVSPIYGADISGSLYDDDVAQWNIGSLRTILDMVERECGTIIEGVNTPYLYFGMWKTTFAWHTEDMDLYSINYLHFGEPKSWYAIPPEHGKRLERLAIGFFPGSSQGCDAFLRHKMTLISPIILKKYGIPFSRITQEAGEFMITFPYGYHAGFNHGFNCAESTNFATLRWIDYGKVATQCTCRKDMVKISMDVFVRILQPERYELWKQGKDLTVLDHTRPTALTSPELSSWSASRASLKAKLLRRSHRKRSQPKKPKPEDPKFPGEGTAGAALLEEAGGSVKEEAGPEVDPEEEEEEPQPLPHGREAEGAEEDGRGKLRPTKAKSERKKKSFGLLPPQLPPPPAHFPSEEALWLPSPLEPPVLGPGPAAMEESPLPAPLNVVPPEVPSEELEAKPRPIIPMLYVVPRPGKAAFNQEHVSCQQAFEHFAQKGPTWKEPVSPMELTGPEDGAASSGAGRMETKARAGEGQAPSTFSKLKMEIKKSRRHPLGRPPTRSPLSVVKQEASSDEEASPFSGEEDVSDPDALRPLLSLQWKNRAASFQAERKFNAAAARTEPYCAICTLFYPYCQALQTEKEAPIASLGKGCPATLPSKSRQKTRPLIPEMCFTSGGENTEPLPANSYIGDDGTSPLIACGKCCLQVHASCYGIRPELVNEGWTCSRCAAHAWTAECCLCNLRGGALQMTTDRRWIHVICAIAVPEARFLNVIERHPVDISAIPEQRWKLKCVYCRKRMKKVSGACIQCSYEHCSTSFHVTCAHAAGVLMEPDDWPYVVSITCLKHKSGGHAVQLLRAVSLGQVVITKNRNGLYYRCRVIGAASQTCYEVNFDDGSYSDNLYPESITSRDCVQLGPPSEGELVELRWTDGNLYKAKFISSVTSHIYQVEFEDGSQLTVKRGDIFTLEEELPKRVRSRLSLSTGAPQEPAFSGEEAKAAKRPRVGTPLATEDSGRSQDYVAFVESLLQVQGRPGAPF

[6] = target: T4, KDM4D (Homo sapiens, UniProt Q6B0I6); assay: as above
T4 construct: KDM4D-GST recombinant enzyme
T4 sequence (Q6B0I6 1-523): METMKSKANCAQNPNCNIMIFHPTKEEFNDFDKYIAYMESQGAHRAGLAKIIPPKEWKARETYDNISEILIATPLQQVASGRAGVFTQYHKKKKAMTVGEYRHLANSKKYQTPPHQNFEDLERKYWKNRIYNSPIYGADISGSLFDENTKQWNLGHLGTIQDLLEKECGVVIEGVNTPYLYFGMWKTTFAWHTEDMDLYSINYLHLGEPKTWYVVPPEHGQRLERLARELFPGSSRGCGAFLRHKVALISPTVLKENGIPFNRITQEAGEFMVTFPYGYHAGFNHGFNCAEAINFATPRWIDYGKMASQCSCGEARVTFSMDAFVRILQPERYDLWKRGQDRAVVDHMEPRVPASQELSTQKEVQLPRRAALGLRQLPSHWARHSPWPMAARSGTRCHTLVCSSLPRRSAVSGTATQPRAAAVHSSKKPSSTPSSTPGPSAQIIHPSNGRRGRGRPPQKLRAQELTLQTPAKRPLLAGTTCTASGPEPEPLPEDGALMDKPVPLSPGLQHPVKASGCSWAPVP

With `O=c1c(O)cccc2cc(O)c(O)c(O)c12` [9aa, 2,3,4,6-tetrahydroxy-5H-benzo[7]annulen-5-one] the “KDM4A enzymatic screening assay and fluorescence assay at 50 μM” value [1] was “Purpurogallin 9aa”.

`O=c1c(O)cccc2c(Br)cc(O)c(O)c12` [9ac, 1-bromo-3,4,6-trihydroxy-5H-benzo[7]annulen-5-one] gave an inhibition at 50 µM [2] of 50%.

`O=C(O)c1cc(O)c(=O)c2c(O)c(O)cc(Br)c2c1` [9bc, 1-bromo-3,4,6-trihydroxy-5-oxo-5H-benzo[7]annulene-8-carboxylic acid] was tested, and the inhibition at 50 µM [2] was 80%.

In the case of `O=C(O)c1cc(O)c(=O)c2c(O)c(O)cc(-c3ccccc3)c2c1` [9bf, 3,4,6-trihydroxy-5-oxo-1-phenyl-5H-benzo[7]annulene-8-carboxylic acid], the IC50 [3] is reported as 38.9 µM, the IC50 [4] is reported as 10.1 µM and the IC50 [5] is reported as 35.9 µM. The IC50 [6] was 28.5 µM.
